Publication PMC11435625, “In Vitro Hepatic Clearance Evaluations of Per- and Polyfluoroalkyl Substances (PFAS) across Multiple Structural Categories” (Toxics, 2024)
Where two headings read alike, the source gives them in different places.

Experiments:
[1] = test system: pooled primary human hepatocyte suspensions; assay: in vitro; conditions: for In Vitro Clint: Table 3, pooled human hepatocyte suspension, 0 = no significant clearance
Procedure, shortened: (§1)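 Substrate depletion at 1 μM PFAS in pooled cryopreserved human hepatocytes (~0.5 × 10^6 viable cells/mL, 50-donor pool), 37 °C with shaking, sampled 0–240 min in triplicate. Quantified by LC-MS in negative ion mode against matrix-matched calibration; media-only or heat-inactivated cells as nonmetabolic-loss controls.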

plasma protein = conditions: cited from earlier work; for fup (fraction unbound in plasma): human plasma
[2] = test system: pooled primary human hepatocyte suspensions; conditions: both, hepatocytes, 1 μM
Excerpt: (§2) Markov Chain Monte Carlo was employed in a Bayesian analysis to estimate uncertainty of the hepatic clearance point measures as previously described, but with some modifications [10]. Briefly, after organizing PFAS-level data into a single file, the relationship between the relevant measurement process parameters was described in a graphic model in JAGS language [13] interfaced through R. For hepatic clearance data, the model describes the PFAS-specific mass spectrometric response factor between analyte peak ratio (to internal standard) and chemical concentration. […] The assumed prior for whether the chemical degraded abiotically in vitro followed a Bernoulli distribution with a 5% chance of abiotic degradation. Separate biotic and abiotic components for chemical elimination were estimated, each with a slope following an assumed uniform prior distribution bounded between the zero and the -log (limit of quantitation/Ctest). In scenarios where an external calibration without internal standard was used, the response factor was calculated using the analyte peak alone, introducing additional uncertainty due to the inability to normalize for recovery issues. The model was analyzed jointly by JAGS using five Markov chains. Convergence was identified by requiring the five chains to be consistent, as indicated by the potential scale reduction factor [14] being less than 1.1. The analysis was performed using EPA-developed R package invitroTKstats, available upon request.

[3] = IVIVE: steady-state concentration (Css), generic HTTK model; design: species or system human; conditions: for Css (mg/L) / Css (uM): Assuming 1 mg/kg/day dose rate, BW 70 kg; for CLhep: QL 1500000 uL/min; for Fub: fub=fup/(B:P), Fub set to 1 if needed; for CLint: scaled to whole liver: HPGL 110 mill cells/g, Vl 1596 g; for Css: human steady-state concentration, 1 mg/kg/day exposure rate, loss of parent compound only
Procedure, shortened: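 Human Css estimated by IVIVE: plasma protein binding converted to blood fraction unbound via blood-to-plasma partitioning, and experimental Clint scaled with liver scalars to whole liver clearance. AEDs then derived by reverse dosimetry from Css and PFAS in vitro POD, defined as fifth-percentile AC50.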

[4] = test system: pooled primary human hepatocyte suspensions; assay: Bayesian (MCMC, invitroTKstats) analysis of hepatic clearance data; conditions: for metabolic clearance call, experimental and Bayesian analyses in agreement: both analyses agreed
Excerpt: as §2

[5] = Hepatic clearance assay (substrate depletion, LC-MS); conditions: both, human, hepatocytes
Procedure, shortened: as §1

[6] = Administered equivalent dose (AED) by reverse dosimetry; design: species or system human; conditions: from Css and AC50 POD by reverse dosimetry
Procedure: IVIVE was performed as previously described to calculate human steady-state concentrations (Css). Briefly, experimental plasma protein binding data presented elsewhere were transformed to fraction unbound in blood using blood-to-plasma partitioning values. Experimental Clint values generated here are used in conjunction with relevant liver scalars to scale up to estimate whole liver clearance. […] Once Css values were established, these were used with the PFAS-specific in vitro POD data to calculate the administered equivalent doses (AEDs) using reverse dosimetry. […] The fifth-percentile AC50 value was used to define the in vitro POD. All relevant inputs, scalars, and calculations are provided in Supplementary Information, as indicated in the results.

[7] = design: method as in PMID 32648786; conditions: human; cited from earlier work
[8] = design: method as in PMID 26085347; conditions: simulation; cited from earlier work
[9] = design: method as in PMID 36851038; conditions: dynamic one-compartment model; cited from earlier work
[10] = CLint value carried into HTTK/IVIVE, in µL/min/10^6 cells
[11] = pooled primary human hepatocyte suspensions, in µL/min/10^6 cells
[12] = unadjusted hepatic intrinsic clearance, pooled primary human hepatocyte suspensions, Table S4, in µL/min/10^6 cells

Structure (SMILES) | Unadj Clint ([1]; both, human, hepatocytes, 1 μM) | Clint.1.Med [2] | Css (mg/L) [3] [mg/L] | Css (uM) [3] [µM] | CLhep [3] [L/h] | Fub [3] | CLint [3] [µL/min] | Unadj Clint [1, 12] | In Vitro Clint ([1]; 1 μM) [μL/min/million cells] | hepatocyte CLint at 1 μM [5] [µL/min/1e6 cells] | AED [6] [mg/kg/day] | fup (fraction unbound in plasma) (plasma protein) | Css [3] [µM] | further results
O=C(O)CCC(F)(C(F)(F)F)C(F)(F)F | 0.00 | 0 | 2.52 | 10.43 | 0.000 | 0.1738 | 0 |  |  |  |  |  |  | CLint for HTTK ([1]; both, human, hepatocytes, 1 μM): 0; in vitro CLint exp assay ([1]; both, human, hepatocytes, 1 μM): 0; Mean fu (plasma protein; plasma): 0.0956
O=C(O)C=CC(F)(C(F)(F)F)C(F)(F)F [3-(Perfluoroisopropyl)-2-propenoic acid] |  | 0 | 2.41 | 10.03 | 0.000 | 0.1824 | 0 | 1.23 |  |  |  |  |  | CLint for HTTK [1, 10]: 0; in vitro CLint exp assay [1, 11]: 0; Mean fu (plasma protein; fraction unbound in plasma, input for IVIVE calculations): 0.1003
O=C(O)CCC(F)(F)C(F)(F)C(F)(F)C(F)(F)C(F)(F)F [5:3 FTCA, 2H,2H,3H,3H-Perfluorooctanoic acid] |  |  |  |  |  |  |  | 11.84 | 11.84 | 11.8 | 0.99 | 0.0059 | 6.18 | metabolic clearance call, experimental and Bayesian analyses in agreement [4]: metabolized
O=C(O)CCC(F)(F)C(F)(F)C(F)(F)C(F)(F)C(F)(F)C(F)(F)C(F)(F)F [7:3 FTCA, 3-Perfluoroheptylpropanoic acid] |  |  | 2.20 | 4.99 | 1.272 | 0.009273 | 2319148 | 19.74 | 15.7 | 15.7 | 0.19 | 0.0051 | 4.99 | Clint.1.Med ([4]; Level-4 Bayesian estimate, posterior median, Clint.1 series (Clint.10 all NA)): 15.6; metabolic clearance call, experimental and Bayesian analyses in agreement [4]: metabolized; CLint for HTTK [1, 10]: 13.21; in vitro CLint exp assay [1, 11]: 13.21
CCNS(=O)(=O)C(F)(F)C(F)(F)C(F)(F)C(F)(F)C(F)(F)C(F)(F)C(F)(F)C(F)(F)F [NEtFOSA, N-Ethylperfluorooctanesulfonamide] | 24.92 | 164 |  |  |  |  |  |  |  | > 15 |  |  |  | 
O=S(=O)(O)C(F)(F)C(F)(F)C(F)(F)C(F)(F)F [PFBS, Perfluorobutanesulfonic acid] |  |  |  |  |  |  |  | 4.75 | 4.75 | 4.75 | 0.83 | 0.0128 | 7.51 | estimated half life [7]: as low as one month
O=C(O)C(F)(F)C(F)(F)C(F)(F)C(F)(F)C(F)(F)C(F)(F)C(F)(F)F [PFOA, Perfluorooctanoic acid] |  |  |  |  |  |  |  |  |  |  | 0.01 | 0.0010 | 582.99 | time to reach steady state [8]: 3.5 years; Unadj Clint ([1]; unadjusted hepatic intrinsic clearance, pooled primary human hepatocyte suspensions, Table S4, listed as Perfluorooctanoic acid, in µL/min/10^6 cells): 1.49
O=S(=O)(O)C(F)(F)C(F)(F)C(F)(F)C(F)(F)C(F)(F)C(F)(F)C(F)(F)C(F)(F)F [PFOS, Perfluorooctanesulfonic acid] |  |  |  |  |  |  |  |  |  |  | 0.08 | 0.0049 | 98.52 | time to reach steady state [8]: 6.6 years; Unadj Clint ([1]; unadjusted hepatic intrinsic clearance, pooled primary human hepatocyte suspensions, Table S4, listed as Perfluorooctanesulfonic acid, in µL/min/10^6 cells): 1.38; time to reach steady-state values [9]: 30 years
NS(=O)(=O)C(F)(F)C(F)(F)C(F)(F)C(F)(F)C(F)(F)C(F)(F)C(F)(F)C(F)(F)F [PFOSA, Perfluorooctanesulfonamide] | 22.84 | 0 |  |  |  |  |  |  |  | > 15 |  |  |  | 
